According to US5683987A, “Therapeutic oligonucleotides targeting the human MDR1 and MRP genes” (The Board of Regents of the University of Nebraska, priority 1995, dated 1997):
pIC50: −log10 of the molar value. Values joined by “and” are separate entries in the source; they are usually repeats but may differ in a detail not shown here. Equal entries are not always repeated. Where two headings read alike, the source gives them in different places.

Assays:
8226/Dox cells [1] = assay: Sensitization of 8226/Dox cells to VCR by MDR-aptameric oligonucleotides; assay type: cell-based, human; details: for Fold Increase in Drug Sensitization: compared to media control
[2] = system: 8226/Dox4 human myeloma cells; assay: Vincristine IC50 summary after MDR-oligo treatment; assay type: cell-based; details: Homo sapiens, read-out: Vincristine IC50
Experimental: (§1) In vitro testing of MDR-Oligonucleotides was done on the multidrug-resistant (MDR+) RPMI-8226/Dox4 human multiple myeloma cell line (gift of Dr. William Dalton, Univ. Arizona Cancer Ctr., Tucson). Cells were incubated in vitro for 4 days at 37° C. with MDR-oligos at 0.2 μM final concentration; pulsed 18 hr with serial 5-fold dilutions of chemotherapeutic drug (vincristine) from 1×10^-4 M to 2×10^-10 M. Cells were then washed, and incubated for an additional 4 days. Tritiated thymidine (^3 H-TdR) was added for last 18 hr to measure status of cellular proliferation. Controls included MDR^+ 8226 cells similarly treated with vincristine but pretreated either with (a) control ODNs, or (b) culture medium only.

[3] = system: 8226/Dox human myeloma cells; assay: Sensitivity of 8226/Dox cells to Vincristine with increasing time after Vincristine exposure; assay type: cell-based; details: for pIC50: Homo sapiens; for Relative Sensitization (fold increase) Day 5: Day 5 after Vincristine exposure; for Relative Sensitization (fold increase) Day 7: Day 7 after Vincristine exposure; for Relative Sensitization (fold increase) Day 9: Day 9 after Vincristine exposure
Experimental: As shown in this example, several oligos which target the MDR1 gene are able to sensitize multidrug-resistant cell lines to the cytotoxic effects of the chemotherapeutic agent Vincristine. […] The cells were then washed and seeded into 96-well plates (quadruplicate replicates) for pulsing with tritiated thymidine 3 days later. Cells were harvested the next day (=4th day after drug treatment). Tritiated thymidine uptake was analyzed by liquid scintillation.
As shown in this example, it was determined that there was an increase in sensitivity of multidrug-resistant 8226/Dox human myeloma cells to Vincristine with increasing time of incubation following initial exposure to Vincristine. The experimental conditions were identical to those utilized in obtaining the data shown in Table 7, except that the present experiment had two additional time points.

8226/Dox4 cells = assay: Parsimonious regression model estimates of count and Vincristine IC50; assay type: cell-based, human; details: Homo sapiens, read-out: Estimated IC50
Experimental: as §1
The following mathematical/statistical model was used to analyze the effects of oligos and various drug treatments on targeted tumor cells in these studies. The model is based on experiments which generally involve treatment of tumor cells with one of several ODNs or media only, and with several dose levels of an anti-cancer agent (such as, for example, vincristine (VCR)) or media only. Analysis goals were to model the relationship of cell kill to the dose of VCR (for example), and to compare the effects of the various ODNs.
This final model contained 10 regressor variables.
Various estimates of parameters from the parsimonious model are shown in TABLE 13, which contains the model estimate of the count for each ODN with media only; differences here (when compared to "media only" [no ODN]) reflect the cell kill associated with the ODN alone. TABLE 13 also contains an estimate of IC50 values, the dose of vincristine (VCR) which is estimated to produce an expected count which is exactly half that expected with "media only" [no VCR]. While formal statistical comparisons of the IC50 values of the various ODNs is not possible, an ordering of the ODNs by estimated IC50 values is possible.

[4] = system: CEM/VLB10 human leukemia cells; assay: Sensitization of CEM/VLB10 cells to Vincristine by MDR-oligos in 5% oxygen; assay type: cell-based; details: for pIC50: read-out: IC50 dose
Experimental: (§2) As shown in this example, several oligos which target the MDR1 gene are able to sensitize multidrug-resistant cell lines to the cytotoxic effects of the chemotherapeutic agent Vincristine. Tumor cells were treated in vitro with 10 μM of the indicated oligo for 4 days at 37° C., then counted, dispensed into individual tubes, and pulsed with Vincristine at various doses (serial 5-fold dilutions) for 3 hrs. The cells were then washed and seeded into 96-well plates (quadruplicate replicates) for pulsing with tritiated thymidine 3 days later. Cells were harvested the next day (=4th day after drug treatment). Tritiated thymidine uptake was analyzed by liquid scintillation.

8226/Dox cells [5] = assay: Sensitization of 8226/Dox cells to Vincristine by an MRP-oligo and MDR-ODNs; assay type: cell-based, human; details: for pIC50: read-out: IC50 dose
Experimental: as §2
In this example, experimental conditions were identical to those utilized in obtaining the data in Example 2.

[6] = system: 8226/Dox human myeloma cells; assay: Sensitization of 8226/Dox cells to Vincristine by MDR-oligos in 5% oxygen; assay type: cell-based; details: for pIC50: read-out: IC50 dose
Experimental: as §2

8226/Dox cells [7] = assay: Sensitization of 8226/Dox cells to doxorubicin by MDR-oligos (tritiated thymidine uptake); assay type: cell-based, human; details: for pIC50: read-out: IC50 dose
Experimental: Multidrug resistant tumor cells were incubated with 15 μM of OL(6)mdr oligo, Cohen(1)mdr oligo or a negative-control (HIV-2) oligo for 4 days at 37° C. in a humidified incubation chamber. Varying doses (5-fold serial dilutions) of doxorubicin (from 1×10^-5 M to 1×10^-8 M) were then added to the culture wells after the cells had been subcultured into media without oligos; cells were then incubated in the same culture environment for an additional three days. Radiolabeled (tritiated) thymidine was added to all cultures for 24 hr before harvest. Each data point is the mean of 4 replicates.

[8] = system: A427 human non-small-cell lung adenocarcinoma cell line; assay: Sensitization of A427 lung cancer cells to etoposide by MRP-oligos; assay type: cell-based
Experimental: The human non-small-cell lung adenocarcinoma cell line A427 was treated with oligos at various concentrations for 4 days in vitro. The cells then were pulsed with various concentrations of etoposide (range 1.6×10^-4 to 1×10^-6 M) for 3 hrs. Next, cells were trypsinized and seeded by volume into 96-well plates with 12 replicates per treatment condition. Three days later, tritiated thymidine was added and the cells harvested the next day.

[9] = system: RPMI-8226/Dox4 human multiple myeloma cell line; assay: Relative activity of MRP-ODNs (summary); assay type: cell-based; design: key: --: no effect; +: weak positive effect; +++++: strong positive effect
[10] = Vincristine IC50 after 4 days with 10 μM oligo, 5% oxygen
[11] = to Vincristine, 10 μM oligo, 5% oxygen

CC[C@]1(O)C[C@H]2CN(CCc3c([nH]c4ccccc34)[C@@](C(=O)OC)(c3cc4c(cc3OC)N(C=O)[C@H]3[C@@](O)(C(=O)OC)[C@H](OC(C)=O)[C@]5(CC)C=CCN6CC[C@]43[C@@H]65)C2)C1 [Vincristine, reference compound]
pIC50 (8226/Dox cells [1]; Homo sapiens, VCR, Media (no oligo)): 4.40 | pIC50 [2]: 4.92 | pIC50 ([3]; 120 h, read-out: IC50 Value on Day 5): 6.36 | pIC50 ([3]; 168 h, read-out: IC50 Value on Day 7): 5.15 | pIC50 ([3]; 216 h, read-out: IC50 Value on Day 9): 3.26 | pIC50 (8226/Dox4 cells): 4.89 | pIC50 ([4]; Homo sapiens): 5.00 | pIC50 (8226/Dox cells [5]; Homo sapiens): 5.96 | pIC50 ([6]; Homo sapiens): 6.35

COc1cccc2c1C(=O)c1c(O)c3c(c(O)c1C2=O)C[C@@](O)(C(=O)CO)C[C@@H]3O[C@H]1C[C@H](N)[C@H](O)[C@H](C)O1 [doxorubicin, reference compound]
pIC50 (8226/Dox cells [7]; Homo sapiens): 6.19

MDR-APT-2: MDR-aptameric oligonucleotide, SEQ ID NO 89: TTCGCCTGATTTCCGCCTCCCGTCT (TTCGCCTGATTTCCGCCTCCCGTCT; chemistry not given here)
Fold Increase in Drug Sensitization (8226/Dox cells [1]): 20,000 fold

MDR-APT-3: MDR-aptameric oligonucleotide, SEQ ID NO 90: CGGTCCGTTA TGTTCCTG (CGGTCCGTTATGTTCCTG; chemistry not given here)
Fold Increase in Drug Sensitization (8226/Dox cells [1]): 5,714 fold

MDR-APT-4: MDR-aptameric oligonucleotide, SEQ ID NO 91: ACTCGCCTCCCACGTAGTGCTT (ACTCGCCTCCCACGTAGTGCTT; chemistry not given here)
Fold Increase in Drug Sensitization (8226/Dox cells [1]): > 40,000 fold

OL(6)mdr: SEQ ID NO 1: CCCACGCCCC GGCGCTGTTC (CCCACGCCCCGGCGCTGTTC; chemistry not given here)
pIC50 (8226/Dox cells [7]; doxorubicin IC50 after 4 days with 15 μM oligo, tritiated thymidine uptake): 6.74 | Relative sensitization (fold increase) (8226/Dox cells [7]; to doxorubicin, 15 μM oligo, vs medium only): 3.6 fold increase | Etoposide (VP-16) Relative Sensitization (fold increase) ([8]; oligo 1 μM): 0 fold increase | Etoposide (VP-16) Relative Sensitization (fold increase) ([8]; oligo 2.5 μM): 0 fold increase | Etoposide (VP-16) Relative Sensitization (fold increase) ([8]; oligo 5.0 μM): 1.2 fold increase | Etoposide (VP-16) Relative Sensitization (fold increase) ([8]; oligo 10 μM): 1.6 fold increase | Relative Sensitization (fold increase) Day 5 ([3]; oligo 2 μM): 1.6 fold increase | Relative Sensitization (fold increase) Day 7 ([3]; oligo 2 μM): 3.5 fold increase | Relative Sensitization (fold increase) Day 9 ([3]; oligo 2 μM): 61 fold increase | Relative Sensitization (fold increase) Day 5 ([3]; oligo 10 μM): 1.8 fold increase | Relative Sensitization (fold increase) Day 7 ([3]; oligo 10 μM): 15.9 fold increase | Relative Sensitization (fold increase) Day 9 ([3]; oligo 10 μM): 550 fold increase | pIC50 [4, 10]: 6.92 | Relative sensitization (fold increase) [4, 11]: 83 fold increase | pIC50 [6, 10]: 6.66 | Relative sensitization (fold increase) [6, 11]: 2.5 fold increase

OL(8)MRP: SEQ ID NO 64: GCGGGATGAT GATGGCGGCG (GCGGGATGATGATGGCGGCG; chemistry not given here)
Relative Activity [9]: +++++ | Etoposide (VP-16) Relative Sensitization (fold increase) ([8]; oligo 2.5 μM): 2.0 fold increase | Etoposide (VP-16) Relative Sensitization (fold increase) ([8]; oligo 5.0 μM): 3.6 fold increase | Etoposide (VP-16) Relative Sensitization (fold increase) ([8]; oligo 10 μM): 18 fold increase and 18.0 fold increase | pIC50 (8226/Dox cells [5]; Vincristine IC50 after oligo treatment, conditions as Example 2): 7.26 | Relative sensitization (fold increase) (8226/Dox cells [5]; to Vincristine, vs medium only): 20 fold increase
